Key:
NQO1 protein = NQO1 protein (Homo sapiens, UniProt P15559); experiment: NQO1 activity measurement (cytochrome C reduction); type: biochemical; details: 5 ng NQO1 protein, 200 μM NADH, 77 μM cytochrome C, 37° C., absorbance 550 nm for 10 minutes
Procedure: An enzyme reaction solution included 25 mM Tris/HCl (pH 7.4), 0.14% bovine serum albumin, 200 μM NADH, 77 μM cytochrome C, and 5 ng of NQO1 protein. Enzymatic reaction was initiated by adding NADH and performed at 37° C. In this regard, a reaction rate was measured by observing absorbance, which was increased due to reduction of cytochrome C, at 550 nm for 10 minutes and NQO1 activity was represented as an amount of reduced cytochrome C [nmol cytochrome C reduced/min/μg protein].
Extinction coefficient for cytochrome C:21.1 mmol/L/cm=21.1 μmol/ml/cm

Cells = experiment: Measurement of lactate change amount within cells; type: cell-based; details: PCA extract of cells, lactate measured from supernatant (Megazyme, K-LATE)
Procedure: Cells were treated with 400 μl of 6% PCA, and then collected and extracted. Centrifugation (13,000 rpm, 10 min) was performed. A precipitate was dried using a Speed-Vac and then a weight of dried precipitate was measured. A supernatant was neutralized using 400 μl of 1 M KOH and a final volume thereof was adjusted to 1 ml using 0.33 M KH2PO4/K2HPO4, pH 7.5. Centrifugation (13,000 rpm, 10 min) was performed and the amount of lactate was measured from a supernatant (Megazyme, K-LATE).

C57BL/6J Lep ob/ob mice = experiment: Weight loss effects in obese mice (ob/ob); type: in vivo; details: Exp. Ex. 3-3, FIG. 3: 11 week-old ob/ob mice, 100 mg/kg oral, total of 6 days, vs 0.1% SLS controls
Procedure: 10 week-old C57BL/6J Lep ob/ob mice having genetic obesity characteristics available from ORIENTBIO were prepared. Two mice were raised in each polycarbonate breeding cage (200 W×260 L×130H (mm), Three-shine) in which temperature was 20 to 24° C., relative humidity was 35 to 65%, illuminance was 150 to 300 lux, night and day were 12 hours, and exhaust was performed at 10 to 15 air changes per hour. As a feed, low fat diet (11.9 kcal % fat, 5053, Labdiet) manufactured by ORIENTBIO was used. The feed was contained in a feeder and free intake was allowed. As drinking water, water, which was contained in a 250 mL polycarbonate based bottle, purified through a filter and a sterilizer was used and free intake was allowed.
The compound according to Example 1 synthesized in the present invention was orally administered to three C57BL/6J Lep ob/ob mice in amounts of 40 mg/kg, 80 mg/kg, and 120 mg/kg, respectively, once every day for two weeks. For administration, a disposable syringe fitted with a sonde for oral administration was used and 10 ml/kg of the compound was orally administered into the stomach. As controls, three C57BL/6J Lep ob/ob mice were administered 0.1% sodium lauryl sulfate (SLS) in an amount of 120 mg/kg in the same manner as described above. After administration, a time-dependent weight increase ratio, weight change, and intake amount were measured and results are illustrated in FIG. 1 below.
Weights of the experimental animals were measured immediately before administration of a test material and seven times a week from an administration initiation day to a test termination day. Increased total weights were calculated by subtracting weights measured on an experiment initiation day from weights measured one day before an experiment termination day. Food intake amounts were calculated by measuring feed supply amounts and remaining amounts twice a week from an initiation day of test material administration to a test termination day for each individual. […]
(§1) Experiments were performed under the same conditions as in Experimental Example 3-1 except that 15 week-old C57BL/6J Lep ob/ob mice having genetic obesity characteristics available from ORIENTBIO were prepared, the compounds according to Examples 5 and 6 were administered to three C57BL/6J Lep ob/ob mice in an amount of 150 mg/kg, 150 mg/kg of 0.1% SLS was administered to each of three C57BL/6J Lep ob/ob mice as controls, and experiments were performed for a total of one week. Weight increase ratios, weight change, and intake amounts depending on administration time were measured and results are illustrated in FIG. 5 below.
as §1, with “that 10” for “that 15”, “Examples 8, 9,” for “Examples 5”, “and 12” for “and 6”, “FIG. 6” for “FIG. 5”
Experiments were performed under the same conditions as in Experimental Example 3-1 except that 6 week-old C57BL/6J Lep ob/ob mice having genetic obesity characteristics available from ORIENTBIO were prepared, the compounds according to Examples 17, 18, 22, and 23 were administered to three C57BL/6J Lep ob/ob mice in an amount of 100 mg/kg, 100 mg/kg of 0.1% SLS was administered to each of three C57BL/6J Lep ob/ob mice as controls, and experiments were performed for a total of one week. Weight increase ratios, weight change, and intake amounts depending on administration time were measured and results are illustrated in FIG. 10 below. […]

Sequence of NQO1 protein (P15559 whole entry, species assumed): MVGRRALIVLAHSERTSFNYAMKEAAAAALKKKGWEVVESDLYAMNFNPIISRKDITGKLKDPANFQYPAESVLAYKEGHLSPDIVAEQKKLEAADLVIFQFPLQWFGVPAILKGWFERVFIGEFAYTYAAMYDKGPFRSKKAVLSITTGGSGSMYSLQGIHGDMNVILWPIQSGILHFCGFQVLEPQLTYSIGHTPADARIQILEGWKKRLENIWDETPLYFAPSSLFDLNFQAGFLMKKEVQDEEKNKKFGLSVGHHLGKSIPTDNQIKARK

Row | Compound | NQO1 activity (5 μM, [nmol cytochrome C reduced/min/μg protein]) (NQO1 protein) | Lactate change amount within cells (nmol/mg cell) (Cells) | intake amount (C57BL/6J Lep ob/ob mice) | weight increase ratio (C57BL/6J Lep ob/ob mice)
1 | CC(C)c1nc2c(n1Cc1ccccc1)-c1ccccc1C(=O)C2=O [Example 2, 1-benzyl-2-isopropyl-1H-naphtho[2,1-d]imidazole-4,5-dione] | 143 nmol cytochrome C reduced/min/μg protein | 7.3 nmol/mg cell | – | –
2 | CC(C)(C)c1nc2c([nH]1)C(=O)C(=O)c1ncccc1-2 [Example 7, 2-tert-butyl-3H-imidazo[4,5-f]quinoline-4,5-dione] | 55 nmol cytochrome C reduced/min/μg protein | 11.4 nmol/mg cell | – | –
3 | COc1ccc(-c2nc3c([nH]2)C(=O)C(=O)c2ccccc2-3)cc1 [Example 10] | 103 nmol cytochrome C reduced/min/μg protein | 9.9 nmol/mg cell | – | –
4 | O=C1C(=O)c2[nH]c(Cc3ccccc3)nc2-c2ccccc21 [Example 11] | 178 nmol cytochrome C reduced/min/μg protein | 7.2 nmol/mg cell | – | –
5 | O=C1C(=O)c2nccnc2-c2ccccc21 [Example 13] | 291 nmol cytochrome C reduced/min/μg protein | – | significantly decreased | significantly decreased
6 | Cn1c(C(C)(C)C)nc2c1-c1cccnc1C(=O)C2=O [Example 14] | 179 nmol cytochrome C reduced/min/μg protein | 12.4 nmol/mg cell | – | –
7 | CC(C)(C)Cc1nc2c([nH]1)C(=O)C(=O)c1ccccc1-2 [Example 15, 2-neopentyl-1H-naphtho[2,1-d]imidazole-4,5-dione] | 183.3 nmol cytochrome C reduced/min/μg protein | 7.2 nmol/mg cell | – | –
8 | CC(C)c1nc2c([nH]1)C(=O)C(=O)c1cc([N+](=O)[O-])ccc1-2 [Example 16] | 94.0 nmol cytochrome C reduced/min/μg protein | 5.8 nmol/mg cell | – | –
9 | CC(=O)Nc1ccc2c(c1)C(=O)C(=O)c1[nH]c(C(C)C)nc1-2 [Example 19] | 24.6 nmol cytochrome C reduced/min/μg protein | 6.5 nmol/mg cell | – | –
10 | CCc1nc2c([nH]1)C(=O)C(=O)c1cc([N+](=O)[O-])ccc1-2 [Example 24] | 208.2 nmol cytochrome C reduced/min/μg protein | 4.3 nmol/mg cell | – | –
11 | CCc1nc2c([nH]1)C(=O)C(=O)c1cc(N)ccc1-2 [Example 25] | 173.1 nmol cytochrome C reduced/min/μg protein | 6.1 nmol/mg cell | – | –
12 | CC(C)(C)c1nc2c([nH]1)C(=O)C(=O)c1cccnc1-2 [Example 27] | 207.4 nmol cytochrome C reduced/min/μg protein | 9.6 nmol/mg cell | – | –
13 | CC(C)C(=O)n1c(C(C)C)nc2c1C(=O)C(=O)c1ccccc1-2 [Example 28] | 177.2 nmol cytochrome C reduced/min/μg protein | 6.8 nmol/mg cell | – | –
14 | CC(C)c1nc2c(n1C(=O)OC(C)(C)C)C(=O)C(=O)c1ccccc1-2 [Example 29] | 215.6 nmol cytochrome C reduced/min/μg protein | 8.1 nmol/mg cell | – | –
15 | CC(C)c1nc2c(n1C(=O)OCc1ccccc1)C(=O)C(=O)c1ccccc1-2 [Example 31] | 127.1 nmol cytochrome C reduced/min/μg protein | 5.1 nmol/mg cell | – | –
16 | CC(C)c1nc2c(n1Cc1ccccc1)C(=O)C(=O)c1ccccc1-2 [Example 32] | 124.2 nmol cytochrome C reduced/min/μg protein | 5.8 nmol/mg cell | – | –
17 | CC(C)c1nc2c(n1Cc1cccc(Cl)c1)C(=O)C(=O)c1ccccc1-2 [Example 34] | 153.5 nmol cytochrome C reduced/min/μg protein | 4.9 nmol/mg cell | – | –
18 | CCn1c(C(C)C)nc2c1C(=O)C(=O)c1ccccc1-2 [Example 36] | 164.6 nmol cytochrome C reduced/min/μg protein | 7.8 nmol/mg cell | – | –
19 | CCOC(=O)n1c(C(C)C)nc2c1C(=O)C(=O)c1ccccc1-2 [Example 37] | 215.7 nmol cytochrome C reduced/min/μg protein | 10.3 nmol/mg cell | – | –
20 | CCc1nc2c(n1C)-c1ccccc1C(=O)C2=O [Example 39, 2-ethyl-1-methyl-1H-naphtho[2,1-d]imidazole-4,5-dione] | 104.7 nmol cytochrome C reduced/min/μg protein | 8.4 nmol/mg cell | – | –
21 | CCc1nc2c(n1CC(F)(F)F)C(=O)C(=O)c1ccccc1-2 [Example 40, 2-ethyl-3-(2,2,2-trifluoroethyl)-3H-naphtho[2,1-d]imidazole-4,5-dione] | 192.9 nmol cytochrome C reduced/min/μg protein | 9.7 nmol/mg cell | – | –
22 | CCc1nc2c(n1C)-c1ccc(F)cc1C(=O)C2=O [Example 42, 2-ethyl-7-fluoro-1-methyl-1H-naphtho[2,1-d]imidazole-4,5-dione] | 57.0 nmol cytochrome C reduced/min/μg protein | 8.9 nmol/mg cell | – | –
23 | CCc1nc2c(n1C)C(=O)C(=O)c1cc(Cl)ccc1-2 [Example 43, 7-chloro-2-ethyl-3-methyl-3H-naphtho[2,1-d]imidazole-4,5-dione] | 111.6 nmol cytochrome C reduced/min/μg protein | 6.0 nmol/mg cell | – | –
